In ChEMBL document CHEMBL1158405, “Identification of nobiletin, a polymethoxyflavonoid, as an enhancer of adiponectin secretion” (2009):
Calls of active or inactive are those of the source. The rule behind the calls is not given here.

Experiments:
ST-13 [1] = assay: Induction of adiponectin secretion in mouse ST-13 cells after 11 days by ELISA; type: functional, cell-based
ST-13 [2] = assay: Induction of preadipocyte differentiation in mouse ST-13 cells assessed as lipid accumulation at 10 uM within 11 days by oil red-staining relative to control; type: functional, cell-based
ST-13 [3] = assay: Induction of preadipocyte differentiation in mouse ST-13 cells assessed as triglyceride accumulation after 11 days by Fletcher's method; type: functional, cell-based
ST-13 [4] = assay: Induction of adipocyte differentiation in mouse ST-13 cells assessed as stimulation of adipsin mRNA expression at 0.1 to 30 uM within 11 days by semi-quantitative RT-PCR; type: functional, cell-based
ST-13 [5] = assay: Induction of adipocyte differentiation in mouse ST-13 cells assessed as stimulation of adipocyte P2 mRNA expression at 0.1 to 30 uM within 11 days by semi-quantitative RT-PCR; type: functional, cell-based
[6] = Induction of adiponectin secretion in mouse ST-13 cells at 10 uM after 11 days by ELISA relative to control; type: functional
ST-13 [7] = assay: Induction of adiponectin protein secretion in mouse ST-13 cells assessed as adiponectin mRNA level after 11 days by semi-quantitative RT-PCR; type: functional, cell-based
ST-13 [8] = assay: Induction of adipocyte differentiation in mouse ST-13 cells assessed as increase in PPARgamma2 mRNA level after 11 days by semi-quantitative RT-PCR relative to control; type: functional, cell-based
[9] = molecular target: T1, Peroxisome proliferator-activated receptor gamma (Homo sapiens) (UniProt P37231); assay: Agonist activity at Gal4-fused human PPARgamma expressed in african green monkey COS1 cells at 30 uM by luciferase reporter gene assay; type: functional, cell-based; conditions: COS-1
T1 sequence (whole entry): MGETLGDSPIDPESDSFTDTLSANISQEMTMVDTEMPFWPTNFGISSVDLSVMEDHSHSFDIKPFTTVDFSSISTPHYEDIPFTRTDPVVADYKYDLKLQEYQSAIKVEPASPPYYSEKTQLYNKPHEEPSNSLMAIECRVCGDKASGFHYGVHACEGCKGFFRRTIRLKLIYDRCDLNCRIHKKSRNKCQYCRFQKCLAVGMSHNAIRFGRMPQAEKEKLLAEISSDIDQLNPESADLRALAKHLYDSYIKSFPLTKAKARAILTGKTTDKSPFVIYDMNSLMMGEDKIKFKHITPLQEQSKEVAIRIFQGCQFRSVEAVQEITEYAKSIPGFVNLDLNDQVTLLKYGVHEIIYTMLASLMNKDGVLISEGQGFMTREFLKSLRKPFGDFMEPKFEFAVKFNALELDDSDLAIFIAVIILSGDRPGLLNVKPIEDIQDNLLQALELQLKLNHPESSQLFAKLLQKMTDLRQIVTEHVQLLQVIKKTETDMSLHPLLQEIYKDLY

ST-13 [10] = assay: Induction of preadipocyte differentiation in mouse ST-13 cells assessed as lipid accumulation at 5 uM within 11 days by oil red-staining relative to control; type: functional, cell-based

Row | SMILES | Activity (ST-13 [1]) | Activity (ST-13 [2]) | Activity (ST-13 [3]) | Activity (ST-13 [4]) | Activity (ST-13 [5]) | Activity [6] | Activity (ST-13 [7]) | Activity (ST-13 [8]) | Activity [9] | Activity (ST-13 [10])
1 | COc1ccc(-c2cc(=O)c3c(OC)cc(OC)c(OC)c3o2)cc1 | Active |  |  |  |  |  |  |  |  | 
2 | COc1ccc(-c2cc(=O)c3c(OC)c(OC)c(OC)c(OC)c3o2)cc1OC [NOBILETIN] | Dose-dependent effect | Active | Dose-dependent effect | Active | Active | 340% | Dose-dependent effect | Active | inactive | 
3 | Cc1c(C)c2c(c(C)c1O)CCC(C)(COc1ccc(CC3SC(=O)NC3=O)cc1)O2 (stereo unspecified) |  |  |  |  |  |  |  |  |  | Active
